Measurements taken from a compilation of properties of binary mixtures (doi:10.1016/j.molliq.2016.12.089).

Experiment: xn = mol fraction of the nth substance listed
Details: 101 kPa

O + C[N+](C)(CCCS(=O)(=O)O)C1CCCCC1.Cc1ccc(S(=O)(=O)[O-])cc1
viscosity (308.15 K, x2 = 0): 0.7218 mPa·s
viscosity (313.15 K, x2 = 0): 0.6564 mPa·s
viscosity (318.15 K, x2 = 0): 0.6071 mPa·s
viscosity (323.15 K, x2 = 0): 0.5538 mPa·s
viscosity (328.15 K, x2 = 0): 0.5064 mPa·s

C[N+](C)(CCCS(=O)(=O)O)C1CCCCC1.Cc1ccc(S(=O)(=O)[O-])cc1 + O
viscosity (303.15 K, x1 = 0.0106): 1.404 mPa·s
viscosity (303.15 K, x1 = 0.0277): 2.684 mPa·s
viscosity (303.15 K, x1 = 0.0603): 7.903 mPa·s
viscosity (303.15 K, x1 = 0.1458): 78.86 mPa·s
viscosity (308.15 K, x1 = 0.0106): 1.257 mPa·s
viscosity (308.15 K, x1 = 0.0277): 2.406 mPa·s
viscosity (308.15 K, x1 = 0.1458): 62.58 mPa·s
viscosity (313.15 K, x1 = 0.0277): 2.146 mPa·s
viscosity (313.15 K, x1 = 0.1458): 48.83 mPa·s
viscosity (313.15 K, x1 = 1): 32650 mPa·s
viscosity (318.15 K, x1 = 0.0277): 1.943 mPa·s
viscosity (318.15 K, x1 = 0.0603): 5.145 mPa·s
viscosity (318.15 K, x1 = 1): 17830 mPa·s
viscosity (323.15 K, x1 = 0.0106): 0.9115 mPa·s
viscosity (323.15 K, x1 = 0.0277): 1.789 mPa·s
viscosity (323.15 K, x1 = 0.0603): 4.579 mPa·s
viscosity (323.15 K, x1 = 0.1458): 31.56 mPa·s
viscosity (323.15 K, x1 = 1): 10187 mPa·s
viscosity (328.15 K, x1 = 0.1458): 25.56 mPa·s
viscosity (328.15 K, x1 = 1): 6293 mPa·s
